From US20240180895A1, “USE OF KAPPA OPIOID RECEPTOR AGONISTS TO TREAT CARDIOVASCULAR DISEASE” (Board of Supervisors of Louisiana State University and …, priority 2021, published 2024) come the findings set out here.

What all share (format): in vivo, rat
For assay [1], the system named is Sprague-Dawley rats. In words: Prevention of diuretic resistance to twice daily furosemide by nalfurafine, 5-hour urine (FIG. 15). The protocol:
Male Sprague-Dawley rats were placed in individual metabolic cages in a room with 12-hour automatic light on/off control and allowed tap water and rodent chow ad libitum. Over the next two (2) days (control period), rats were administered vehicle (5% NaOH; 1 M PBS, IP) in the morning (9:00 am) and afternoon (2:00 pm) of each day, with urine collected for 5-hours starting immediately after the first injection. […] This was repeated for 4 consecutive days (experimental period).

Assay [2] concerns conscious Sprague-Dawley rats. Briefly: Acute cardiovascular and renal excretory studies, i.v. bolus (Example 3). The protocol:
(§1) Animals: Male Sprague-Dawley (SD) rats (Envigo Labs, Indianapolis, IN), 300-350 g, were individually housed under a 12 h light-dark cycle and allowed tap water and standard rodent diet ad libitum. Rats were randomly assigned to experimental groups for all acute and subacute studies. All procedures were approved by the Louisiana State University Health Sciences Center Institutional Animal Care and Use Committee and conducted in accordance with the National Institutes of Health guidelines for the care and use of animals.
Surgical Procedures: Aseptic technique was followed for all surgical procedures. On the morning of the experiment, rats were anesthetized with and maintained under inhaled 2% isoflurane, and polyethylene catheters (PE50; BD Diagnostics, Sparks, MD) were surgically inserted into the left femoral vein and left femoral artery for the infusion of saline and/or drug administration and the recording of arterial blood pressure, respectively. Subsequently, a suprapubic incision was made and a flanged polyethylene catheter (PE240; BD Diagnostics, Sparks, MD) was inserted into the bladder, exteriorized, and sutured to surrounding muscle and skin. Rats were then placed in an elevated restrainer (Krowicki & Kapusta, 2011) to recover from surgery and allow collection of urine. When acute experimental protocols were completed, rats were anesthetized via isoflurane and decapitated.
Acute Cardiovascular and Renal Excretory Studies: Following surgery, rats received an i.v. infusion of isotonic saline at 55 μL min^−1 throughout the duration of the experiment and were allowed 4-6 hours to recover from anesthesia. Arterial catheters were connected to a pressure transducer (MLT0670, ADInstruments, Sydney, Australia), which was connected to Powerlab 8/30 (ADInstruments) for recording of pulsatile and mean arterial blood pressure (MAP) and heart rate (HR). Blood pressure and HR were visualized using LabChart software (v8.1.5; ADInstruments). […] Following this control period, drug or vehicle (isotonic saline) was injected into the femoral vein catheter at a volume of 2 cc kg^−1, and urines were collected in 10 minute periods for a span of 90 minutes. […] All groups are n=6. Urine volume was measured gravimetrically, urine sodium and potassium concentrations were measured using flame photometry (model 943; Instrumentation Laboratories, Lexington, MA), and urine osmolality was measured using a vapor pressure osmometer (model 5600; WESCOR, Logan, UT).
(§2) Experimental Design and Analysis: All results are expressed as mean±SEM. […] Means between groups for total urine output, Na^+ concentration, K^+ concentration, and urine osmolality were compared using a Student's t-test. Statistical significance was characterized as P<0.05. Statistics were carried out using Prism 7.05 software (GraphPad Software, Inc., San Diego, CA) and IBM SPSS Statistics (IBM, Armonk, NY).

Assay [3] deals with Sprague-Dawley rats. In words: Reversal of oral furosemide diuretic resistance by oral nalfurafine (FIG. 17). The protocol:
Male Sprague-Dawley rats were placed in individual metabolic cages in a room with 12-hour automatic light on/off control and allowed tap water and rodent chow ad libitum. Over the next two (2) days (control period), rats were administered vehicle (5% NaOH; 1 M PBS) orally (gavage) in the morning (9:00 am) and afternoon (2:00 pm) and urine was collected for 5-hours after the first oral treatment. […] This was repeated for 8 consecutive days (experimental period).

Assay [4] concerns conscious Sprague-Dawley rats. In words: Metabolic cage renal excretory studies, oral gavage (Example 3). Conditions: oral gavage, mean±SEM. The protocol: as §1
Metabolic Cage Renal Excretory Studies: Rats were placed in metabolic cages (model 18cv, Fenco, Cataumet, MA) for 2 hours to allow for acclimation and voiding of residual urine. Following the acclimation period, rats were volume loaded with 20 cc kg^−1 drug or vehicle (isotonic saline) via oral gavage. Urines were collected each hour over a 5-hour period. Following completion of the study rats were returned to their home cages. […] These points are marked on the figures with number of measurements in parentheses.
as §2

Assay [5] has as its system Sprague-Dawley rats placed on a low-salt diet. Briefly: Reversal of furosemide diuretic resistance by difelikefalin in rats on a low sodium diet (FIG. 16). Conditions: low sodium diet. The protocol:
Male Sprague-Dawley rats were placed in individual metabolic cages in a room with 12-hour automatic light on/off control and allowed tap water. For these studies, rats were placed on a low-salt diet (0.1% NaCl) for one week prior to and throughout the experimental protocol. […] For the first two (2) days (control period), rats were administered vehicle (5% NaOH; 1 M PBS, IP) in the morning (9:00 am) and urine was then collected for 5-hours.

The subject of assay [6] is Sprague-Dawley rats. Briefly: Prevention of diuretic resistance to once daily furosemide by difelikefalin, 24-hour urine (FIG. 14). The protocol: Male Sprague-Dawley rats were placed in individual metabolic cages in a room with 12-hour automatic light on/off control and allowed tap water and rodent chow ad libitum. Over the next two (2) days (control period), rats were administered vehicle (5% NaOH; 1 M PBS, IP) in the morning (9:00 am) and urine was then collected for 24-hours.

Setting [7] is: i.v. bolus, cumulative 90-min urine, same doses, mean±SEM.
Where [8] appears, read: cumulative 5-hour urine, same doses.

For the molecule `NS(=O)(=O)c1cc(C(=O)O)c(NCc2ccco2)cc1Cl` [furosemide], the “Day of peak diuresis” value in assay [1] (twice daily IP for 4 days) was determined as 1 days; in assay [3] (furosemide alone, oral), 1 days; in assay [5] (furosemide alone), 1 days; in assay [6] (once daily IP for 10 days), 2 days. Also, in assay [1] (twice daily IP, furosemide 20 mg/kg alone or with nalfurafine 10 μg/kg, day 4), the “5-hour urine output on day 4” value amounted to 7.41 ± 1.40 mL. Moreover, the “5-hour urine output at peak diuresis” value is 13.99 ± 0.72 mL in assay [1] (twice daily IP, furosemide 20 mg/kg alone or with nalfurafine 10 μg/kg, mean±SEM); 13.97 ± 0.64 mL in assay [3] (furosemide (20 mg/kg per method) orally twice per day, day 1); 9.86 ± 0.76 mL in assay [5] (furosemide 10 mg/kg IP once daily, day 1). The “Duration of the increase in urine flow rate above control” value in assay [2] (after i.v. bolus) was determined as 30 min. Moreover, in assay [2] (after i.v. bolus), the “Time of peak diuresis (urine flow rate)” value came to 10 min. In assay [2] (i.v. bolus, 90-min protocol), the “Effect on heart rate (HR)” value was “did not produce any change in MAP or HR”. For the same molecule, the “Effect on MAP” value in assay [2] (i.v. bolus, diuretic alone, 90-min protocol) was “did not produce any change in MAP or HR”. For the same molecule, the “Potassium concentration [K+] in cumulative urine” value is 14.51±0.63 μeq ml^−1 in assay [2] (setting [7]) and 23.94±1.02 μeq ml^−1 in assay [4] (setting [8]). The “Sodium concentration [Na+] in cumulative urine” value was determined as 138±1.58 μeq ml^−1 in assay [2] (setting [7]) and 96.76±2.66 μeq ml^−1 in assay [4] (setting [8]). For the same molecule, the Urine osmolality in assay [2] (setting [7]) was 379.8 ± 15.33 mmol/kg. For the same molecule, the Total urine output is 9.20 ± 0.75 mL in assay [2] (i.v. bolus, cumulative urine of 90-min protocol, nalfurafine 5 μg kg−1, furosemide 7.5 mg kg−1, HCTZ 2.5 mg kg−1, amiloride 2 mg kg−1, mean±SEM, n=6) and 18.28 ± 0.67 mL in assay [4] (cumulative urine of 5-hour protocol, nalfurafine 150 μg kg−1, furosemide 50 mg kg−1, HCTZ 5 mg kg−1, amiloride 5 mg kg−1, n=6). Besides, the “5-hour urine output on day 6” value in assay [3] (furosemide alone orally twice per day, day 6) was 5.61 ± 1.14 mL. Also, the “5-hour urine output on day 12” value in assay [5] (furosemide 10 mg/kg IP once daily alone, day 12) turned out to be 4.43 ± 0.54 mL. The “24-hour urine output on day 10” value in assay [6] (once daily IP, furosemide 10 mg/kg alone or with difelikefalin 20 μg/kg, day 10) turned out to be 5.57 ± 0.63 mL. For the same molecule, the “24-hour urine output at peak diuresis” value in assay [6] (once daily IP, furosemide 10 mg/kg alone or with difelikefalin 20 μg/kg, mean±SEM) came to 14.98 ± 1.85 mL.
